Some test systems named below: M14 melanoma; SK-MEL-2 melanoma; COLO 205 colon; K-562 leukemia; 786-0 renal; OVCAR-3 ovarian; UO-31 renal; MOLT-4 leukemia; OVCAR-8 ovarian; ACHN renal; HCC-2998 colon; SNB-19 CNS; MALME-3M melanoma; DU-145 prostate; SF-268 CNS; LOX IMVI melanoma; NCI-H460 lung; A549 NSCLC; HCT-15 colon; HL-60(TB) leukemia; U251 CNS; A498 renal; SR leukemia; TK-10 renal; RPMI-8226 leukemia; EKVX NSCLC; SN12C renal; HOP-62 NSCLC; UACC-257 melanoma; BT-549 breast; MCF7 breast; IGROV1 ovarian; SK-MEL-5 melanoma; KM12 colon; CAKI-1 renal; OVCAR-4 ovarian; CCRF-CEM leukemia; NCI-H522 lung; HOP-92 NSCLC; HS 578T breast; OVCAR-5 ovarian.

Holding throughout (assay): growth of human tumour cells (NCI), 48 h

Several values for one entry are separate records, joined by “and”; a condition that tells them apart may be missing. Equal entries are not always repeated.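 Five concentrations, 48 hours, 96-well plates. GI50 is the concentration that inhibits growth by half. TGI is the concentration that stops growth completely.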 A value given as a limit tells only on which side of the number the result lay.

As to `COc1cc(C2C3=C(COC3=O)Oc3cc4c(cc32)OCO4)cc(OC)c1OC(C)=O` (centres undefined), the TGI is greater than 100 µM with M14 melanoma; greater than 100 µM in the assay on SK-MEL-2 melanoma; 0.336 µM in the assay on COLO 205 colon; greater than 100 µM in the assay on K-562 leukemia; greater than 100 µM in the assay on 786-0 renal; greater than 100 µM in the assay with OVCAR-3 ovarian. Also, the TGI in the assay with UO-31 renal was greater than 39.4 µM; in the assay with MOLT-4 leukemia, greater than 100 µM; in the assay on OVCAR-8 ovarian, greater than 100 µM; in the assay on ACHN renal it was greater than 57.2 µM; with HCC-2998 colon it was greater than 100 µM; in the assay with SNB-19 CNS it was greater than 100 µM. Moreover, the TGI was greater than 100 µM in the assay on MALME-3M melanoma; greater than 100 µM in the assay on DU-145 prostate; greater than 100 µM in the assay on SF-268 CNS; greater than 24.1 µM in the assay on LOX IMVI melanoma; greater than 100 µM in the assay with NCI-H460 lung; greater than 100 µM in the assay with A549 NSCLC. Also, the TGI in the assay on HCT-15 colon is greater than 100 µM; in the assay on HL-60(TB) leukemia, 0.615 µM; in the assay on U251 CNS, greater than 100 µM; in the assay on A498 renal, 0.618 µM; in the assay with SR leukemia it was greater than 100 µM; in the assay on TK-10 renal, greater than 100 µM. For the same compound, the TGI in the assay with RPMI-8226 leukemia was greater than 100 µM; in the assay on EKVX NSCLC, greater than 100 µM; in the assay with SN12C renal it was greater than 100 µM; in the assay with HOP-62 NSCLC, greater than 100 µM; in the assay on UACC-257 melanoma it was greater than 100 µM; with BT-549 breast, 5.74 µM. Also, the TGI with MCF7 breast is greater than 51.6 µM; in the assay on IGROV1 ovarian it was 10.9 µM; with SK-MEL-5 melanoma it was 0.0785 µM; in the assay with KM12 colon, greater than 100 µM; in the assay on CAKI-1 renal it was greater than 100 µM; with OVCAR-4 ovarian, greater than 100 µM. Further, the TGI in the assay on CCRF-CEM leukemia and with NCI-H522 lung was greater than 100 µM each time.
On to `CC(=O)c1c(-c2cccc3ccccc23)c(C#N)c(=S)n(C2OC(CO)C(O)C(O)C2O)c1-c1ccccc1` (centres undefined), for which the GI50 with UO-31 renal was 5.09 µM and 1.59 µM. The TGI was 23.8 µM and 3.54 µM with UO-31 renal; greater than 100 µM in the assay on HOP-92 NSCLC; greater than 100 µM in the assay on EKVX NSCLC.
In the case of `OC(c1cc2cc(Cl)c(Cl)cc2c2cc(C(F)(F)F)ccc12)C1CCCCN1` (centres undefined), the GI50 with UO-31 renal is 1.52 µM; in the assay with MOLT-4 leukemia, 1.59 µM; with OVCAR-8 ovarian, 1.67 µM; with HS 578T breast it was 1.54 µM; in the assay on DU-145 prostate, 1.94 µM; in the assay with A549 NSCLC, 1.68 µM. The GI50 in the assay with HL-60(TB) leukemia is 2.28 µM; with U251 CNS, 1.72 µM; with A498 renal it was 1.36 µM; with OVCAR-5 ovarian, 1.61 µM; in the assay on CAKI-1 renal, 2 µM. For the same compound, the TGI in the assay on UO-31 renal was found to be 3.16 µM; in the assay on MOLT-4 leukemia, 3.32 µM; in the assay with OVCAR-8 ovarian, 3.21 µM; with HS 578T breast, 3.27 µM; with DU-145 prostate, 3.36 µM; in the assay on A549 NSCLC, 3.18 µM. The TGI was 4.07 µM with HL-60(TB) leukemia; 3.21 µM with U251 CNS; 2.69 µM with A498 renal; 3.1 µM in the assay with OVCAR-5 ovarian; 4.32 µM in the assay on CAKI-1 renal.

The values are drawn from PubChem BioAssay (NCI).
